Laboratory results from ChEMBL document CHEMBL3785080, “Individual and combined antiparasitic effect of six plant metabolites against Leishmania amazonensis and Trypanosoma cruzi” (Bioorg Med Chem Lett, 2016).
Each block holds one compound with its values, some of them ahead of it.

What was measured:
[1] = Cytotoxicity against human THP1 cells assessed as cell viability after 72 hrs by MTT assay; assay type: functional; details: THP-1, 72 h
Leishmania amazonensis = experiment: Antileishmanial activity against intracellular amastigote stage of Leishmania amazonensis infected in human THP1 cells […] by microplate based assay; assay type: functional, organism-based
[2] = Selectivity index, ratio of CC50 for human THP1 cells to IC50 for Leishmania amazonensis; assay type: functional, THP-1
Trypanosoma cruzi = experiment: Antiprotozoan activity against intracellular amastigote stage of Trypanosoma cruzi Tulahuen infected in human THP1 cells assessed as reduction in parasite viability after 48 hrs by microplate based assay; assay type: functional, organism-based; details: THP-1, 48 h
[3] = Selectivity index, ratio of CC50 for human THP1 cells to IC50 for Trypanosoma cruzi Tulahuen; assay type: functional, THP-1

IC50 (Leishmania amazonensis): 29.2 µM
SMILES: CC(C)=CCc1c(O)c(CC=C(C)C)c2c(c1O)C(=O)C[C@@H](c1ccc(O)c(O)c1)O2
CC50 [1]: 46.3 µM
Ratio CC50/IC50 [2]: 1.58

IC50 (Leishmania amazonensis): 0.07 µM
SMILES: C[C@@H]1[C@H](O)[C@@H](C)/C=C/C=C/C=C/C=C/C=C/C=C/C=C/[C@H](O[C@@H]2O[C@H](C)[C@@H](O)[C@H](N)[C@@H]2O)C[C@@H]2O[C@](O)(C[C@@H](O)C[C@@H](O)[C@H](O)CC[C@@H](O)C[C@@H](O)CC(=O)O[C@H]1C)C[C@H](O)[C@H]2C(=O)O [AMPHOTERICIN B]
CC50 [1]: 10 µM
Ratio CC50/IC50 [2]: 142

IC50 (Trypanosoma cruzi): 44.5 µM
IC50 (Leishmania amazonensis): 21.8 µM
SMILES: CC1(C)C=Cc2c(ccc(C(=O)/C=C/c3ccccc3)c2O)O1 [LONCHOCARPIN]
CC50 [1]: 66 µM
Ratio CC50/IC50 [2]: 3.03
Ratio CC50/IC50 [3]: 1.48

Second part, the compound before the results:

SMILES: CC1(C)C=Cc2c(ccc(C(=O)/C=C/c3ccc(O)cc3)c2O)O1
CC50 [1]: 76.2 µM
IC50 (Leishmania amazonensis): 23 µM
Ratio CC50/IC50 [2]: 3.31

SMILES: COc1c(O)ccc2c1C(O)N(C)c1c-2ccc2cc3c(cc12)OCO3 (centres undefined)
CC50 [1]: > 125 µM
IC50 (Leishmania amazonensis): 16.2 µM
Ratio CC50/IC50 [2]: >7.69

SMILES: O=C(Cn1ccnc1[N+](=O)[O-])NCc1ccccc1 [BENZNIDAZOLE]
IC50 (Trypanosoma cruzi): 10.2 µM
CC50 [1]: > 125 µM
Ratio CC50/IC50 [3]: >12

SMILES: COc1c(C=O)c(O)cc2c1C(=O)c1ccccc1C2=O [DAMNACANTHAL]
IC50 (Trypanosoma cruzi): 39.5 µM
CC50 [1]: 31.5 µM
Ratio CC50/IC50 [3]: 0.79

SMILES: CC(C)=CCc1c(O)ccc(C(=O)/C=C/c2ccc(O)cc2)c1O [ISOBAVACHALCONE]
CC50 [1]: 36 µM
